Like-named read-outs stand apart in the source and are kept apart here. Values belong to the compound of their own block, whether it stands above or below them.
Key:
[1] = cited from earlier work; for stability of the form (in words): as reported in US 2006/0287528 or US 2007/0021430; for conversion into crystalline sitagliptin phosphate monohydrate: US 2007/0021430
[2] = Solubility of sitagliptin phosphate in water and polar organic solvents; format: physicochemical
Excerpt: In a preferred aspect, Form V of sitagliptin phosphate may be prepared by slurring starting material, crude or pure sitagliptin phosphate, anhydrate or solvate, which can be obtained according to the procedures described in U.S. patent application 2005/0032804 with a polar organic solvent or a mixture of two or more polar organic solvents under heat. The sitagliptin phosphate is soluble in water, but not soluble in polar organic solvents. The preferred polar organic solvent is methanol or acetone. The concentration of sitagliptin phosphate within the solution may range from about 0.1% by weight to the saturation point. This concentration will, of course, vary depending upon the temperature at which the co-solvent solution is held, with warmer temperatures generally allowing for the preparation of more concentrated solutions of sitagliptin phosphate. Preferably, the concentration (w/w %) of sitagliptin phosphate starting material in solution is about 0.5-15%, preferably about 1-10%, more preferably about 1.5-5%. The volume ratio of water to methanol or acetone is about 1:0.1-200, preferably about 1:2-30, more preferably about 1:3-10, most preferably about 1:4-6. […]

[3] = Stability studies of Form V bulk material and tablets on storage, stability-indicating HPLC; format: physicochemical; conditions: bulk material
Method: The stability of Form V of sitagliptin phosphate bulk material and tablets is assessed by storing samples for up to 12 weeks at 25° C./60% RH or up to 3 weeks at 40° C./75% RH. Changes are monitored using a stability-indicating HPLC method. Results were calculated by normalized peak area (npa). Degradants are identified by comparison of their relative retention times against impurity standards.

[4] = Thermal phase stability of Form V on heating; format: physicochemical; conditions: heating up to 41° C.
Excerpt: Additionally, Form V has lower water content, good material flow characteristic and better chemical stability.

Structure (SMILES): N[C@@H](CC(=O)N1CCn2c(nnc2C(F)(F)F)C1)Cc1cc(F)c(F)cc1F.O=P(O)(O)O [Form III]
temperature below which the form is stable ([1]; US 2006/0287528): below 34 °C

solubility in polar organic solvents ([2]; polar organic solvents (e.g. methanol, acetone)): not soluble | solubility in water ([2]; water): soluble
Structure (SMILES): N[C@@H](CC(=O)N1CCn2c(nnc2C(F)(F)F)C1)Cc1cc(F)c(F)cc1F.O=P(O)(O)O [sitagliptin phosphate, dihydrogenphosphate salt of (2R)-4-oxo-4-[3-(trifluoromethyl)-5,6-dihydro[1,2,4]triazolo[4,3-α]pyrazin-7(8H)yl]-1-(2,4,5-trifluorophenyl)butan-2-amine]

Structure (SMILES): N[C@@H](CC(=O)N1CCn2c(nnc2C(F)(F)F)C1)Cc1cc(F)c(F)cc1F.O=P(O)(O)O [Form I]
conversion on grinding or compaction ([1]; grinding or compaction, US 2006/0287528): can be converted into Form III

Structure (SMILES): N[C@@H](CC(=O)N1CCn2c(nnc2C(F)(F)F)C1)Cc1cc(F)c(F)cc1F.O=P(O)(O)O [ethanol solvate]
stability of the form (in words) [1]: not a stable form

Structure (SMILES): N[C@@H](CC(=O)N1CCn2c(nnc2C(F)(F)F)C1)Cc1cc(F)c(F)cc1F.O=P(O)(O)O [Form IV]
conversion into crystalline sitagliptin phosphate monohydrate ([1]; ambient conditions): slowly | stability of the form (in words) [1]: metastable | conversion into crystalline sitagliptin phosphate monohydrate ([1]; high relative humidity (98%) at room temperature): rapidly

time for which polymorph (phase) and chemical stability was demonstrated ([3]; elevated temperature and humidity (40° C./75%)): over 3 weeks | time stable with respect to polymorphic form (phase) stability and formation of known and unknown degradants ([3]; stored under normal conditions of temperature and humidity): over 3 months | phase transformation on heating [4]: does not undergo a phase transformation
Structure (SMILES): N[C@@H](CC(=O)N1CCn2c(nnc2C(F)(F)F)C1)Cc1cc(F)c(F)cc1F.O=P(O)(O)O [Form V, (2R)-4-oxo-4-[3-(trifluoromethyl)-5,6-dihydro[1,2,4]triazolo[4,3-α]pyrazin-7(8H)yl]-1-(2,4,5-trifluorophenyl)butan-2-amine dihydrogenphosphate]

Structure (SMILES): N[C@@H](CC(=O)N1CCn2c(nnc2C(F)(F)F)C1)Cc1cc(F)c(F)cc1F.O=P(O)(O)O [Form II]
stability of the form (in words) [1]: metastable | time to convert to anhydrous Form I or Form III or mixtures thereof ([1]; at about 45° C., US 2006/0287528): about 2 hours

From patent publication US20090247532A1, “Crystalline polymorph of sitagliptin phosphate and its preparation” (Mae De Ltd., priority 2008, published 2009)
